Laboratory results published in patent US11111251B2, “Positive allosteric modulators of the muscarinic acetylcholine receptor M1” (Vanderbilt University, priority 2016, dated 2021).

Biological target: T1, human mAChR M1 (Homo sapiens, UniProt P11229)
T1 sequence (P11229 1-460): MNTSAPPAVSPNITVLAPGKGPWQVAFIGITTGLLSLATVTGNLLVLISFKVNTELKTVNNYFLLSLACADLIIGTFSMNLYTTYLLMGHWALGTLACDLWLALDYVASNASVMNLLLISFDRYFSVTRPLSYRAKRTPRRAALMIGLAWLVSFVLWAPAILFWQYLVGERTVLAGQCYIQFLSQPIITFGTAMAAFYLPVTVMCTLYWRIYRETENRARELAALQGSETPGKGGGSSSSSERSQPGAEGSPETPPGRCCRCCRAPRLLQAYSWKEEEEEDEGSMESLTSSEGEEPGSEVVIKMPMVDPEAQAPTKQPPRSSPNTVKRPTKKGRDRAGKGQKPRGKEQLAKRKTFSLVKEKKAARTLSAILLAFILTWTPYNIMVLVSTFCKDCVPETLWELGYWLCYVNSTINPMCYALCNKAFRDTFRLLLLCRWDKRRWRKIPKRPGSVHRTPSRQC
Experiment: mAChR M1 cell-based functional assay: calcium mobilization, positive allosteric modulator mode (increase in EC20 acetylcholine response)
Conditions: Table 2, human M1; for EC50: read-out: Human M1 EC50; for Emax: read-out: Human M1 Emax (%)
In short: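 Calcium-flux assay in CHO-K1 cells stably expressing human M1, loaded with Fluo-4 AM (50 min, 37 °C) and read at 1 Hz. Compound (11-point, 1:3 series) was added at 4 s, EC20 acetylcholine at 144 s and EC80 at 230 s. PAM activity is the concentration-dependent rise in the EC20 response, fitted with a four-parameter logistic.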

| Compound | EC50 | Emax | Human M1 Emax (%) |
| --- | --- | --- | --- |
| Cn1ccc(-c2ccc(Cc3cc(C(=O)NC4CCOCC4)nc4ccn(C)c34)cn2)n1 [Compound 503, 1-methyl-7-[[6-(1-methylpyrazol-3-yl)-3-pyridyl]methyl]-N-tetrahydropyran-4-yl-pyrrolop,2-blpyridine-5-carboxamide;] | 1.56 µM | 66.6% | – |
| Cn1ccc(-c2ccc(Cc3cc(C(=O)NC4CCOC(C)(C)C4)nc4ccn(C)c34)cn2)n1 (centres unmarked) [Compound 504, N-(2,2-dimethyltetrahydropyran-4-yl)-1-methyl-7-[[6-(1-methylpyrazol-3-yl)-3-pyridyl]methyl]pyrrolo[3,2-b]pyridine-5-carboxamide;] | 1.35 µM | 79.5% | – |
| Cn1ccc(-c2ccc(Cc3cc(C(=O)NC4CCOCC4(C)C)nc4ccn(C)c34)cn2)n1 (centres unmarked) [Compound 505, N-(3,3-dimethyltetrahydropyran-4-yl)-1-methyl-7-[[6-(1-methylpyrazol-3-yl)-3-pyridyl]methyl]pyrrolo[3,2-b]pyridine-5-carboxamide;] | 0.752 µM | 79.4% | – |
| CC1CC(NC(=O)c2cc(Cc3ccc(-c4ccn(C)n4)nc3)c3c(ccn3C)n2)CC(C)O1 (centres unmarked) [Compound 506, N-(2,6-dimethyltetrahydropyran-4-yl)-1-methyl-7-[[6-(1-methylpyrazol-3-yl)-3-pyridyl]methyl]pyrrolo[3,2-b]pyridine-5-carboxamide;] | 7.12 µM | 78.2% | – |
| Cn1ccc(-c2ccc(Cc3cc(C(=O)NC4CC5(COC5)C4)nc4ccn(C)c34)cn2)n1 [Compound 507, 1-methyl-7-[[6-(1-methylpyrazol-3-yl)-3-pyridyl]methyl]-N-(2-oxaspiro[3.3]heptan-6-yl)pyrrolo[3,2-b]pyridine-5-carboxamide;] | 0.985 µM | 77.6% | – |
| Cn1ccc(-c2ccc(Cc3cc(C(=O)NCC4CCOCC4)nc4ccn(C)c34)cn2)n1 [Compound 508, 1-methyl-7-[[6-(1-methylpyrazol-3-yl)-3-pyridyl]methyl]-N-(tetrahydropyran-4-ylmethyl)pyrrolo[3,2-b]pyridine-5-carboxamide;] | 2.31 µM | 79.9% | – |
| Cn1ccc(-c2ccc(Cc3cc(C(=O)NCC4CCOC4)nc4ccn(C)c34)cn2)n1 (centres unmarked) [Compound 509, 1-methyl-7-[[6-(1-methylpyrazol-3-yl)-3-pyridyl]methyl]-N-(tetrahydrofuran-3-ylmethyl)pyrrolo[3,2-b]pyridine-5-carboxamide;] | 4.32 µM | 75.4% | – |
| Cn1ccc(-c2ccc(Cc3cc(C(=O)NC4CC(F)C4)nc4ccn(C)c34)cn2)n1 (centres unmarked) [Compound 510, N-(3-fluorocyclobutyl)-1-methyl-7-[[6-(1-methylpyrazol-3-yl)-3-pyridyl]methyl]pyrrolo[3,2-b]pyridine-5-carboxamide;] | 4.28 µM | 76.8% | – |
| Cn1ccc(-c2ccc(Cc3cc(C(=O)NC4CC(F)(F)C4)nc4ccn(C)c34)cn2)n1 [Compound 511, N-(3,3-difluorocyclobutyl)-1-methyl-7-[[6-(1-methylpyrazol-3-yl)-3-pyridyl]methyl]pyrrolo[3,2-b]pyridine-5-carboxamide;] | 1.77 µM | 66.1% | – |
| Cn1ccc(-c2ccc(Cc3cc(C(=O)N[C@H]4CCCC[C@@H]4O)nc4ccn(C)c34)cn2)n1 [Compound 512, N-[(1S,2S)-2-hydroxycyclohexyl]-1-methyl-7-[[6-(1-methylpyrazol-3-yl)-3-pyridyl]methyl]pyrrolo[3,2-b]pyridine-5-carboxamide; and] | 0.0913 µM | 70.8% | – |
| Cn1ccc(-c2ccc(Cc3cc(C(=O)N[C@H]4CC[C@@H]4O)nc4ccn(C)c34)cn2)n1 [Compound 513, N-[(1S,2S)-2-hydroxycyclobutyl]-1-methyl-7-[[6-(1-methylpyrazol-3-yl)-3-pyridyl]methyl]pyrrolo[3,2-b]pyridine-5-carboxamide] | 0.712 µM | 77.8% | – |
| N-[(1S,2S)-2-hydroxycyclohexyl]-7-(4-[(4-2-ylphenyl)methyl]thieno[3,2-b]pyridine-5-carboxamide [Compound 295] | – | – | 72.42% |
